Laboratory results reported in US20240307283A1, “COMPOSITIONS AND METHODS FOR DECREASING PIGMENTATION” (The General Hospital Corporation, priority 2021, published 2024).
Peptide text beside a SMILES is read from it. * marks the point of attachment. Cbz = O=C(OCc1ccccc1)*

Experiments:
[1] = tested on: human skin explants (Fitzpatrick skin type 2); test: Prevention of UVB-driven pigmentation in human skin explants; type: cell-based; conditions: UVB 150 mJ/cm^2
Experimental: (§1) Skin samples considered surgical waste were obtained de-identified from healthy donors (IRB #2013P000093) undergoing reconstructive surgery, according to institutional regulations. Full thickness human abdominal skin explants were cultured in petri dishes with a solid phase and liquid phase phenol red free DMEM medium containing 20% penicillin/streptomycin/glutamine, 5% fungizone (Gibco), and 10% fetal bovine serum. Compounds were applied strictly on top of the explants, making sure no drip occurred into the underlying media. For UV irradiation experiments, a UV lamp (UV Products) was used at 1000 mJ/cm^2 UVB.
The ability of a number of NNT activators to prevent UVB-driven pigmentation of skin was evaluated in human skin explants (Fitzpatrick skin type 2) with application of UVB 150 mJ/cm^2. […]

human skin explants = test: Depigmentation of human skin explants by NNT activators; type: cell-based; conditions: for Dose needed to depigment within 36 h (skin type 2) / ability to depigment skin: DMSO-based carrier; for Dose needed to depigment within 36 h (skin type 2): single dose or lower end of the dose range; for ability to depigment skin: after 36 hours, FIGS. 13A-B
Experimental: as §1
The ability of ASS, Usnic acid, 4-hexylresorcinol, candesartan, Nigericin, elaidylphosphocholine, hexitidine, naproxol, and Ginkgolic acid to depigment skin was tested in human skin explants. A DMSO-based carrier solution was used. DMSO was used as a negative control. […]

tyrosinase = test: Cycloheximide chase assay of tyrosinase protein stability; type: cell-based, human; conditions: UACC257, 10 μM for 6 h, then CHX
Experimental: Cycloheximide chase assay: 72 h after siRNA transfection (sicontrol or siNNT), UACC257 melanoma cells were treated with a protein synthesis inhibitor, cyclohexamide (CHX, Sigma Aldrich #C7698, 50 μg/ml), for the indicated times and then immediately subjected to immunoblotting for tyrosinase protein expression. The expression of tyrosinase was quantified using ImageJ software based on band intensities and normalized to the intensities of the corresponding β-actin bands. The normalized tyrosinase expression was then defined as relative tyrosinase expression by setting the mean values at t=0 in each experimental group to 1.0. […] The siRNA-transfected cells were cultured for an additional 48 h in the presence of these agents and then examined by the CHX chase assay as described above. pLJM-1-EGFP or pLJM1-NNT/FLAG was introduced into UACC257 cells using Lipofectamine 3000, 48 after transfection, the transfection medium was replaced with fresh medium containing DMSO or 10 μM MG132 (Sigma Aldrich #M8699) and pre-incubated for 6 h. Then. CHX was added to assess tyrosinase protein stability as described above.

[2] = tested on: mouse melan-A melanocytes; test: In vitro depigmentation of melan-A melanocytes; type: cell-based; conditions: 2 uM or 10 uM, DMSO-based carrier, 1-5 days (average 1.5 days), FIG. 12B
Experimental: Murine Melan-A (Bennett et al., 1987) cells were obtained from the Wellcome Trust Functional Genomics Cell Bank. Melan-A cells were grown in RPMI 1640 supplemented with 10% FBS or FetalPlex (Gemini Bio-Products, #100-602), 100,000 U/L penicillin, 100 mg/L streptomycin sulphate, 100× Glutamax, and 200 nM TPA.
(§2) The ability of 2 uM or 10 uM ASS, Usnic acid, 4-hexylresorcinol, candesartan, Nigericin, and Ginkgolic acid to depigment was evaluated in mouse B16 melanoma cells and melan-A melanocytes. A DMSO-based carrier solution was used, and the experiments carried out for 1-5 days, with an average of 1.5 days. 4-n-Butylresorcinol, N-Acetylcystein (NAC), and Phenylthiourea (PTU), were used as a positive control, and DMSO as a negative control.

mouse B16 melanoma cells = test: In vitro depigmentation of B16 melanoma cells; type: cell-based; conditions: 2 uM or 10 uM, DMSO-based carrier, 1-5 days (average 1.5 days), FIG. 12A
Experimental: as §2

Row | Structure (SMILES) | Dose needed to inhibit UVB-induced tanning (skin type 2) [1] [µM] | Dose needed to depigment within 36 h (skin type 2) (human skin explants; human skin explants) [µM] | tyrosinase protein stability in NNT-overexpressing cells (tyrosinase) | ability to depigment skin (human skin explants) | ability to depigment [2] | ability to depigment (mouse B16 melanoma cells) | lightening by Fontana Masson and H&E staining (human skin explants; FIG. 13C) | nuclear capping (human skin explants; FIG. 13C) | Dose needed to depigment within 36 h (skin type 2), result in words (human skin explants; human skin explants)
1 | CC(=O)c1c(O)c(C)c(O)c2c1OC1=CC(=O)C(C(C)=O)C(=O)C12C (centres unmarked) [Usnic acid, usnic acid] | 100 | ≥ 5 | – | – | – | – | – | – | –
2 | CC(C)C[C@@H](C=O)NC(=O)[C@H](CC(C)C)NC(=O)[C@H](CC(C)C)NC(=O)OCc1ccccc1 [MG132, carbobenzoxy-L-leucyl-L-leucyl-L-leucinal] (Cbz-Leu-Leu-Leu-aldehyde) | – | – | prevented an NNT overexpression-induced decrease in Tyrosinase protein stability | – | – | – | – | – | –
3 | CCCCCCCC/C=C/CCCCCCCCOP(=O)([O-])OCC[N+](C)(C)C [elaidylphosphocholine, [(E)-octadec-9-eny] 2-(trimethylazaniumyl)ethyl phosphate] | – | – | – | depigmenting effects | – | – | – | – | –
4 | CCCCCCc1ccc(O)cc1O [4-hexylresorcinol] | 1000 | 5 | – | depigmenting effects | depigmenting effects | depigmenting effects | – | – | –
5 | CO[C@@H]1C[C@@H](C[C@H]2CC[C@H](C)[C@H]([C@@H](C)C(=O)O)O2)O[C@]2(O[C@](C)([C@H]3CC[C@@](C)([C@@H]4O[C@@H]([C@H]5O[C@@](O)(CO)[C@H](C)C[C@@H]5C)C[C@@H]4C)O3)C[C@H]2C)[C@@H]1C [Nigericin] | 10 to 100 | 5 | – | depigmenting effects | depigmenting effects | depigmenting effects | – | – | –
6 | CCCCCC/C=C\CCCCCCCc1cccc(O)c1C(=O)O [Ginkgolic acid] | 100 | ~50 | – | depigmenting effects | depigmenting effects | depigmenting effects | displayed lightening effects | Nuclear capping was present | n.s.
7 | CC(=O)Oc1ccccc1C(=O)O [ASS, Acetylsalicylic Acid] | 10 | ≥ 5 | – | depigmenting effects | depigmenting effects | depigmenting effects | – | – | –
8 | CCOc1nc2cccc(C(=O)O)c2n1Cc1ccc(-c2ccccc2-c2nnn[nH]2)cc1 [candesartan, 1-((2′-(1H-Tetrazol-5-yl)-[1,1′-biphenyl]-4-yl)methyl)-2-ethoxy-1H-benzo[d]imidazole-7-carboxylic acid] | 1000 to 10000 | ≥ 50 | – | depigmenting effects | depigmenting effects | depigmenting effects | – | – | –
